Test [1] deals with T1, Tyrosine-protein phosphatase non-receptor type 11 (Homo sapiens) (UniProt Q06124).
T1 sequence (whole entry): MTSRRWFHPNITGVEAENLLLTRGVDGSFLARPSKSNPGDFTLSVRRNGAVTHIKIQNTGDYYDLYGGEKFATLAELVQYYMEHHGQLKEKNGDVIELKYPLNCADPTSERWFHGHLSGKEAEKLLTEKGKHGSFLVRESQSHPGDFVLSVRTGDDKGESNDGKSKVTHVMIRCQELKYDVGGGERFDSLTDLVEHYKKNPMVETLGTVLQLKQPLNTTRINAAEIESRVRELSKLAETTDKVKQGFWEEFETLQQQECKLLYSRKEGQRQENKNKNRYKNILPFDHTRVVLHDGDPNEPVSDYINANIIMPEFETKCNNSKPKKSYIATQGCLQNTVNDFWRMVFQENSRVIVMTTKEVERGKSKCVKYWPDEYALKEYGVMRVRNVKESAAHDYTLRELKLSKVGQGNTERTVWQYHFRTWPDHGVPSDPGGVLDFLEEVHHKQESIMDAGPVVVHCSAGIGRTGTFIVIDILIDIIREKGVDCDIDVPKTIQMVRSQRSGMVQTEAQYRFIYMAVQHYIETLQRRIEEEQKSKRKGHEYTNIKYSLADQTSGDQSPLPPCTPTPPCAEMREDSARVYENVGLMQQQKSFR
The experiment in a line: Inhibition of recombinant human SHP2 expressed in Escherichia coli using 2P-IRS1 peptide as substrate at 1 uM after 1 hr by microplate reader analysis relative to control.

The target in test [2] is T2, Tyrosine-protein phosphatase non-receptor type 11 (Homo sapiens, UniProt Q06124).
T2 sequence (Q06124 whole entry): T1 sequence (whole entry)
The test is described as follows: Inhibition of recombinant human SHP2 expressed in Escherichia coli using 2P-IRS1 peptide as substrate after 1 hr by microplate reader analysis.

Test [3] addresses T1, Tyrosine-protein phosphatase non-receptor type 11 (Homo sapiens). The experiment in a line: Non-competitive inhibition of recombinant human SHP2 expressed in Escherichia coli using 2P-IRS1 peptide as substrate up to 200 uM after 1 hr by Lineweaver-Burk plot analysis.
Test [4] concerns MDA-MB-468. The test is described as follows: Antiproliferative activity against SHP2 knockout human MDA-MB-468 cells with assessed as increase in cell viability at 100 uM after 2 to 4 days by CCK-8 assay relative to MDA-MB-468 cells expressing SHP2. Format: functional.
Test [5] deals with MDA-MB-468. The experiment in a line: Antiproliferative activity against human MDA-MB-468 3D spheroids assessed as reduction in cell viability after 2 to 4 days by CCK-8 assay. The test is classed as functional, cell-based.
Test [6] has as its system MDA-MB-468. The experiment in a line: Antiproliferative activity against human MDA-MB-468 3D spheroids assessed as reduction in cell viability at 20 uM after 2 to 4 days by CCK-8 assay relative to control. Format: functional.
In test [7] the test system is MDA-MB-468. The test is described as follows: Potency index, ratio of SHP099 IC50 to compound IC50 for antiproliferative activity against human MDA-MB-468 cells after 2 to 4 days by CCK-8 assay. Format: functional.
The subject of test [8] is MDA-MB-468. The experiment in a line: Antiproliferative activity against human MDA-MB-468 cells assessed as reduction in cell viability after 2 to 4 days by CCK-8 assay. The test is classed as functional, cell-based.

Each structure is given as a SMILES string. Activity calls are given as the source filed them. The rule behind the calls is not given here.

For the molecule `NC(=O)c1cc(O)c(=O)c2c(O)c(O)ccc2c1`, the inhibition in test [1] is 13%. Besides, the IC50 in test [2] stood at 4.11 µM.

Take `O=C(O)c1cc(O)c(=O)c2c(O)c(O)ccc2c1` [7-DESHYDROXYPYROGALLIN-4-CARBOXYLIC ACID]: the inhibition entry in test [3] is “Active”. Moreover, the inhibition in test [1] is 93%. Moreover, the “fold change (FC)” value in test [4] was 19.3. In addition, the IC50 in test [5] stood at 35.8 µM; in test [2], 0.097 µM; in test [8], 5.3 µM. Further, the Activity in test [6] is listed as 35.7%. Further, the Ratio IC50 in test [7] is 5.6.

With `COC(=O)c1cc(OC)c(=O)c2c(OC)c(OC)ccc2c1`, the inhibition in test [1] stood at 0%.

As for `NC(=O)c1cc(O)c(=O)c2c(O)c(O)c(F)cc2c1`, the inhibition in test [1] came to 52%. The IC50 in test [2] turned out to be 0.949 µM.

Take `O=c1c(O)cccc2ccc(O)c(O)c12`: in test [1], the inhibition came to 0%.

For the molecule `CC1(N)CCN(c2cnc(-c3cccc(Cl)c3Cl)c(N)n2)CC1`, the IC50 in test [5] was 49.6 µM; in test [8], 29.9 µM.

`COC(=O)c1cc(O)c(=O)c2c(O)c(O)ccc2c1` [METHYL 7-DESHYDROXYPYROGALLIN-4-CARBOXYLATE]: the inhibition in test [1] stood at 87%. In addition, the “fold change (FC)” value in test [4] is reported as 3. Moreover, the IC50 worked out at 62.9 µM in test [5], 0.161 µM in test [2] and 4.6 µM in test [8]. For the same molecule, in test [6], the Activity was 27.5%.

With `CCOC(=O)c1cc(O)c(=O)c2c(O)c(O)c(F)cc2c1`, the inhibition in test [1] was 19%. In addition, the IC50 in test [2] was 6.54 µM.

`CCOC(=O)c1cc(O)c(=O)c2c(O)c(O)ccc2c1`: the inhibition in test [1] was 50%. Moreover, in test [2], the IC50 was 0.985 µM.

Consider `CC(C)OC(=O)c1cc(O)c(=O)c2c(O)c(O)c(F)cc2c1`, for which, in test [1], the inhibition amounted to 0.47%. Besides, the IC50 in test [2] was determined as 7.74 µM.

`COc1cc2cc(C(N)=O)cc(O)c(=O)c2c(O)c1O`: in test [1], the inhibition is 0%.

Regarding `O=c1c(O)cc(-c2nc(CCl)co2)cc2ccc(O)c(O)c12`, the inhibition in test [1] was 29%. Further, the IC50 in test [2] stood at 1.57 µM.

Turning to `N#Cc1cc(O)c(=O)c2c(O)c(O)ccc2c1`, in test [1], the inhibition amounted to 40%. Moreover, the IC50 in test [2] came out at 1.23 µM.

For the molecule `CC(C)OC(=O)c1cc(O)c(=O)c2c(O)c(O)ccc2c1`, the inhibition in test [1] was 2%. Besides, the IC50 in test [2] was 4.87 µM.

Regarding `O=C(O)c1cc(O)c(=O)c2c(O)c(O)c(F)cc2c1`, the inhibition in test [1] was 90%. The “fold change (FC)” value in test [4] was 16.3. For the same molecule, the results for the IC50 in test [5], in test [2] and in test [8] were 39.2 µM, 0.277 µM and 71 µM, respectively. Besides, in test [6], the Activity amounted to 37.2%.

For `COC(=O)c1cc(O)c(=O)c2c(O)c(O)c(OC)cc2c1`, in test [1], the inhibition was 6%. Moreover, in test [2], the IC50 worked out at 8.66 µM.

`COc1ccc2cc(C(=O)O)cc(OC)c(=O)c2c1OC`: the inhibition in test [1] is 0%.

Take `COC(=O)c1cc(O)c(=O)c2c(O)c(O)c(F)cc2c1`: the inhibition in test [1] amounted to 12%. In addition, in test [2], the IC50 is 7.55 µM.

The record behind these values is ChEMBL document CHEMBL4342437, “Development and structure-activity relationship study of SHP2 inhibitor containing 3,4,6-trihydroxy-5-oxo-5H-benzo[7]annulene” (Bioorg Med Chem Lett, 2020).
